Measured values as given in patent publication US20080019961A1, “Hedgehog signaling pathway antagonist cancer treatment” (Regents of the University of Michigan, priority 2006, published 2008).
Where two headings read alike, the source gives them in different places. Square brackets hold non-standard residues; d marks the D form. Peptide text beside a SMILES is read from it. * marks the point of attachment. Nle = CCCC[C@H](N)C(=O)O; Cbz = O=C(OCc1ccccc1)*

Tests used:
Assay type in all cases: cell-based, human
[1] = test system: mammary stem/progenitor cells in mammospheres; assay: Primary and secondary mammosphere formation (in vitro self-renewal assay)
[2] = test system: PTCH1, Gli1, Gli2 and HES1 mRNA; assay: Hh and Notch pathway gene mRNA in mammospheres by real-time RT-PCR; conditions: for block of Shh-induced PTCH1, Gli1, Gli2 and HES1 expression: 3 μg/ml Shh with 300 nM Cyclopamine or 5 μM GSI; for block of DSL-induced HES1, PTCH1, Gli1 and Gli2 expression: 10 μM DSL with 5 μM GSI or 300 nM Cyclopamine
Protocol: Single cells from epithelial organoids were plated in 6-well ultra-low attachment plates (Coming) at a density of 100,000 viable cells/ml. Cells were cultured in 2 ml of a serumfree MEBM per well. […] Cells were incubated for 7 days in the presence of different treatments as follows. For the treatment with Hedgehog agonists and antagonist, Shh was used at 1.5 μg/ml, 3 μg/ml and 6 μg/ml in the presence or absence of 300 riM of CP or 5 μM of GSI. CP was used at 150 nM, 300 nM and 600 nM concentrations, and the control was 12% 1×PBS with 0.06% BSA. For the treatment with Notch agonists and antagonist, DSL was used at 10 μM in the presence or absence of 5 μM of GSI or 300 nM of CP, and the controls consisted of 10 μM of scrambled Notch peptide. All treatments were continued for 10 days, with agonists and antagonists added every two or three days when medium was changed.
Mammospheres were then collected for in vitro self-renewal assays and Real-time quantitative RT-PCR. For reverse-transcriptase reactions, 1 μg of total RNA from mammospheres or differentiated cells on collagen-coated plates was reverse transcribed with 200 U M-MLV Reverse Transcriptase (GibcoBRL) at 42° C. for 1 hour in the presence of 5 mM each of dATP, dCTP, dGTP and dTTP, 4 μl 5× 1 st strand buffer (GibcoBRL), 0.01M DDT, 1 U RNA Guard RNase inhibitor (GibcoBRL), and 2.5 µM random primers in a total volume of 20 μl. The reaction was terminated by heating to 95° C. for 3 minutes. Real-time quantitative PCR (TaqMan™) primers and probes were purchased from AppliedBiosytems as Assays-on-Demand™ Gene Expression Products. Real-time PCRs were performed following the supplier's instructions (Applied Biosystems). 20 μl of PCR mixture contained 10 μl of 2× Taqman™ universal PCR Master Mix, 1 μl of 20× working stock of gene expression assay mix, and 50 ng of RNA converted cDNA. PCR was performed in a ABI PRISM® 7900HT sequence detection system with 384-Well block module and automation accessory (Applied Biosystems) by incubation at 50° C. for 2 min and then 95° C. for 10 min followed by 40 amplification cycles (15 s of denaturation at 95° C. and 1 min of hybridization and elongation at 60° C.). The reaction for each sample was performed in quadruplicates. Fluorescence of the PCR products was detected by the same apparatus. The number of cycles that it takes for amplification plot to reach the threshold limit, the Ct-value was used for quantification. RPLP0 was used for normalization.
In order to determine whether activation of the Notch pathway could affect Hh targets, Notch signaling was activated by utilizing the DSL ligand which binds to all Notch receptors (Dontu et al., 2004).

Bmi-1 mRNA = Bmi-1 mRNA in mammospheres by real-time RT-PCR; conditions: for block of Shh-induced Bmi-1 expression: Shh with Cyclopamine or GSI
[3] = test system: mammosphere branching morphogenesis; assay: Mammosphere branching morphogenesis in 3-D Matrigel culture; conditions: 300 nM Cyclopamine
Protocol: Briefly, 30 mammospheres were suspended in 1 ml of BD Matrigel™ Matrix (Cat. 354234, BD Biosciences, Palo Alto, Calif.) and Ham's F-12 medium (BioWbittaker) with 5% serum at a ratio of 1:1, and plated 1 ml of the mixture into one well of 24-well cold plates and each group of mammospheres was performed in quadruplicates. After the matrigel was solidified, 1 ml of Ham's F-12 medium (BioWhittaker) with 5% serum was added to the top of the matrigel. The experiments were repeated with mammospheres derived from at least three different patients.

| SMILES | block of the Shh effect on mammary stem cell self-renewal ([1]; 3 μg/ml Shh with 300 nM Cyclopamine or 5 μM GSI) | block of DSL-stimulated mammary stem cell self-renewal ([1]; 10 μM DSL with 5 μM GSI or 300 nM Cyclopamine) | block of Shh-induced PTCH1, Gli1, Gli2 and HES1 expression [2] | block of DSL-induced HES1, PTCH1, Gli1 and Gli2 expression [2] | block of DSL-induced Bmi-1 expression (Bmi-1 mRNA; DSL with GSI or Cyclopamine) | block of Shh-induced Bmi-1 expression (Bmi-1 mRNA) | Cyclopamine inhibition of primary mammosphere formation on addition of Shh [1] | Cyclopamine inhibition of secondary mammosphere formation on addition of Shh [1] | block of DSL-stimulated mammary stem cell self-renewal [1] | block of the Shh effect on mammary stem cell self-renewal [1] | decrease of average cell number in primary mammospheres vs control [1] [%] | decrease of average cell numbers per secondary mammosphere [1] [%] | decrease of primary mammosphere formation vs control [1] [%] | decrease of secondary mammospheres vs control [1] [%] | effect of Cyclopamine on the effects of Gli1 or Gli2 overexpression [1] | effects on mammosphere formation, lowest dose [1] | effect on branch formation [3] |
| --- | --- | --- | --- | --- | --- | --- | --- | --- | --- | --- | --- | --- | --- | --- | --- | --- | --- |
| CCCC[C@@H](C=O)NC(=O)[C@H](CC(C)C)NC(=O)[C@H](CC(C)C)NC(=O)OCc1ccccc1 [GSI, Z-Leu-Leu-Nle-CHO] (Cbz-Leu-Leu-[Nle]-aldehyde) | did not block | blocked | not | completely blocked | completely blocked | not | – | – | – | – | – | – | – | – | – | – | – |
| CC1=C2C[C@H]3[C@@H](CC=C4C[C@@H](O)CC[C@@]43C)[C@@H]2CC[C@]12O[C@@H]1C[C@H](C)CN[C@H]1[C@H]2C [Cyclopamine] | – | – | partially blocked | partially blocked and not | – | blocked | reversal of inhibition | reversed | not | blocked | 51 | 56 | 45 | 54 | unaffected | no effects | almost completely blocked branch formation |
